Source: patent US20160339074A1, “PHARMACEUTICAL COMPOSITION OF SELECTIVE HCV NS3/4A INHIBITORS” (MERCK SHARP & DOHME CORP., priority 2014, published 2016)
Values after ≈ are worked out from the molar mass of the structure shown. Read-outs that look alike come from different tables or passages of the source.

Columns and labels:
[1] = log D of Compound 1; format: physicochemical; settings: pH 7, pH=7
[2] = TM/TG ratio (crystallization tendency); format: physicochemical; settings: based on the most stable crystalline phase known
[3] = Aqueous solubility; format: physicochemical; settings: aqueous medium (not further specified)
[4] = thermodynamic from solid

- logD [1]: 3
- TM/TG ratio [2]: 1.12
- solubility [3]: < 50 µg/mL
- solubility at 2 h ([4]; simulated fasted state intestinal fluid, fassif): 50 µg/mL (≈ 65.2 µM)
- solubility at 2 h ([4]; simulated gastric fluid): < 3 µg/mL
SMILES: C=C[C@@H]1C[C@]1(NC(=O)[C@@H]1C[C@@H]2CN1C(=O)[C@H](C(C)(C)C)NC(=O)O[C@@H]1C[C@H]1CCCCCc1nc3ccc(OC)cc3nc1O2)C(=O)NS(=O)(=O)C1CC1 [Compound 1, (1aR,5S,8S,10R,22aR)-5-tert-butyl-N-{(1R,2S)-1-[(cyclopropylsulfonyl)carbamoyl]-2-ethenylcyclopropyl}-14-methoxy-3,6-dioxo-1,1a,3,4,5,6,9,10,18,19,20,21,22,22a-tetradecahydro-8H-7,10-methanocyclopropa[18,19][1,10,3,6]dioxadiazacyclononadecino[11,12-b]quinoxaline-8-carboxamide]
